Source: ChEMBL document CHEMBL5154882, “Discovery of 4-Hydroxyquinazoline Derivatives as Small Molecular BET/PARP1 Inhibitors That Induce Defective Homologous Recombination and Lead to Synthetic Lethality for Triple-Negative Breast Cancer Therapy” (J Med Chem, 2022)
The source made the active and inactive calls. No cut-off for these calls is given here.

Assays:
MDA-MB-468 [1] = assay: Induction of apoptosis in human MDA-MB-468 cells assessed as downregulation of Bcl-2 protein level incubated for 72 hrs in presence of olaparib by Western blot analysis; assay type: functional, cell-based
MDA-MB-468 [2] = assay: Induction of apoptosis in human MDA-MB-468 cells assessed as up-regulation of Bax protein level at incubated for 72 hrs in presence of olaparib by Western blot analysis; assay type: functional, cell-based
MDA-MB-231 [3] = assay: Induction of DNA damage in human MDA-MB-231 cells assessed as increase in tail DNA at 1 uM measured after 3 days in presence of olaparib by comet assay; assay type: functional, cell-based; conditions: time 3.0 day
MDA-MB-468 [4] = assay: Induction of apoptosis in human MDA-MB-468 cells assessed as early apoptotic cells at 1 uM incubated for 72 hrs in presence of olaparib by annexin V/propidium iodide staining-based flow cytometry analysis (reference value: 4.07%); assay type: functional
MDA-MB-231 [5] = assay: Induction of DNA damage in human MDA-MB-231 cells assessed as increase in tail DNA measured at 1 uM after 3 days by comet assay; assay type: functional, cell-based; conditions: time 3.0 day
MDA-MB-468 [6] = assay: Cell cycle arrest in human MDA-MB-468 cells assessed as accumulation at S phase incubated for 72 hrs in presence of olaparib by propidium iodide staining-based flow cytometry analysis (reference value: 21.1%); assay type: functional
MDA-MB-468 [7] = assay: Induction of apoptosis in human MDA-MB-468 cells assessed as late apoptotic cells at 1 uM incubated for 72 hrs in presence of olaparib by annexin V/propidium iodide staining-based flow cytometry analysis (reference value: 1.34%); assay type: functional
MDA-MB-468 [8] = assay: Synergistic antiproliferative activity against human MDA-MB-468 cells at compound to Olaparib ratio of 1:3; assay type: functional, cell-based
MDA-MB-468 [9] = assay: Induction of DNA damage in human MDA-MB-468 cells assessed as up-regulation of gammaH2AX expression level at 1 uM in presence of olaparib by DAPI staining based immunofluorescence assay; assay type: functional, cell-based
MDA-MB-468 [10] = assay: Induction of apoptosis in human MDA-MB-468 cells assessed as up-regulation of cleaved caspase 3 protein level incubated for 72 hrs in presence of olaparib by Western blot analysis; assay type: functional, cell-based
MDA-MB-468 [11] = assay: Cell cycle arrest in human MDA-MB-468 cells assessed as accumulation at S phase incubated for 72 hrs in presence of olaparib by propidium iodide staining-based flow cytometry analysis (Rvb=16.1%); assay type: functional
MDA-MB-468 [12] = assay: Cell cycle arrest in human MDA-MB-468 cells assessed as accumulation at G0/G1 phase incubated for 72 hrs in presence of olaparib by propidium iodide staining-based flow cytometry analysis (reference value: 61.4%); assay type: functional
MDA-MB-468 [13] = assay: Induction of DNA damage in human MDA-MB-468 cells assessed as up-regulation of gammaH2AX expression level at 1 uM incubated for 60 mins by DAPI staining based immunofluorescence assay; assay type: functional, cell-based
[14] = Toxicity in BALB/c nude mouse xenografted with human MDA-MB-468 cells assessed as change in body weight at 40 to 80 mg/kg, ig administered daily for 16 days measured every 3 days; assay type: organism-based; conditions: in vivo, po, 384 h, dose 40-80 mg/kg, time 16 day
MDA-MB-231 [15] = assay: Antitumor activity against human MDA-MB-231 cells xenografted in BALB/c nude mouse assessed as downregulation of c-Myc at 80 mg/kg by Western blot analysis; assay type: functional, organism-based
[16] = Toxicity in BALB/c nude mouse xenografted with human MDA-MB-468 cells assessed as morphological changes in kidney at 80 mg/kg, ig administered daily for 16 days measured every 3 days by hematoxyin-eosin staining based analysis; assay type: organism-based; conditions: in vivo, po, 384 h, time 16 day
[17] = molecular target: Bromodomain-containing protein 4 (Homo sapiens, UniProt O60885); assay: Inhibition of BRD4 (unknown origin) at 1 uM relative to control
MDA-MB-231 [18] = assay: Antitumor activity against human MDA-MB-231 cells xenografted in BALB/c nude mouse assessed as reduction in CtIp expression at 80 mg/kg incubated for 30 to 40 mins by immunohistochemical analysis; assay type: functional, organism-based; conditions: time 30-40 min
[19] = Toxicity in BALB/c nude mouse xenografted with human MDA-MB-468 cells assessed as morphological changes in spleen at 40 to 80 mg/kg, ig administered daily for 16 days measured every 3 days by hematoxyin-eosin staining based analysis; assay type: organism-based; conditions: in vivo, po, 384 h, dose 40-80 mg/kg, time 16 day
[20] = Toxicity in BALB/c nude mouse xenografted with human MDA-MB-468 cells assessed as morphological changes in liver at 40 to 80 mg/kg, ig administered daily for 16 days measured every 3 days by hematoxyin-eosin staining based analysis; assay type: organism-based; conditions: in vivo, po, 384 h, dose 40-80 mg/kg, time 16 day
[21] = Toxicity in BALB/c nude mouse xenografted with human MDA-MB-468 cells assessed as morphological changes in liver at 80 mg/kg, ig administered daily for 16 days measured every 3 days by hematoxyin-eosin staining based analysis; assay type: organism-based; conditions: in vivo, po, 384 h, time 16 day
[22] = Toxicity in BALB/c nude mouse xenografted with human MDA-MB-468 cells assessed as morphological changes in kidney at 40 to 80 mg/kg, ig administered daily for 16 days measured every 3 days by hematoxyin-eosin staining based analysis; assay type: organism-based; conditions: in vivo, po, 384 h, dose 40-80 mg/kg, time 16 day
MDA-MB-231 [23] = assay: Antitumor activity against human MDA-MB-231 cells xenografted in BALB/c nude mouse assessed as downregulation of CtIP at 80 mg/kg by Western blot analysis; assay type: functional, organism-based
MDA-MB-468 [24] = assay: Antitumor activity against human MDA-MB-468 cells xenografted in BALB/c nude mouse model assessed as tumor growth inhibition at 80 mg/kg, ig administered daily for 16 days measured every 3 days relative to control; assay type: functional; conditions: MDA-MB-468, po, 384 h, time 16 day, read-out: TGI
[25] = Toxicity in BALB/c nude mouse xenografted with human MDA-MB-468 cells assessed as morphological changes in lung at 40 to 80 mg/kg, ig administered daily for 16 days measured every 3 days by hematoxyin-eosin staining based analysis; assay type: organism-based; conditions: in vivo, po, 384 h, dose 40-80 mg/kg, time 16 day
MDA-MB-231 [26] = assay: Antiproliferative activity against human MDA-MB-231 cells assessed as reduction in cell viability incubated for 72 hrs by MTT assay; assay type: functional, cell-based; conditions: MDA-MB-231, 72 h
[27] = Toxicity in BALB/c nude mouse xenografted with human MDA-MB-468 cells assessed as death at 80 mg/kg, ig administered daily for 16 days measured every 3 days; assay type: organism-based; conditions: in vivo, po, 384 h, time 16 day
[28] = Toxicity in BALB/c nude mouse xenografted with human MDA-MB-468 cells assessed as death at 40 to 80 mg/kg, ig administered daily for 16 days measured every 3 days; assay type: organism-based; conditions: in vivo, po, 384 h, dose 40-80 mg/kg, time 16 day
MDA-MB-231 [29] = assay: Antitumor activity against human MDA-MB-231 cells xenografted in BALB/c nude mouse assessed as tumor growth inhibition at 80 mg/kg incubated for 30 to 40 mins by Ki-67 staining based immunohistochemical analysis; assay type: functional, organism-based; conditions: time 30-40 min
[30] = Toxicity in BALB/c nude mouse xenografted with human MDA-MB-468 cells assessed as morphological changes in spleen at 80 mg/kg, ig administered daily for 16 days measured every 3 days by hematoxyin-eosin staining based analysis; assay type: organism-based; conditions: in vivo, po, 384 h, time 16 day
MDA-MB-231 [31] = assay: Antitumor activity against human MDA-MB-231 cells xenografted in BALB/c nude mouse assessed as reduction in PAR expression at 80 mg/kg incubated for 30 to 40 mins by immunohistochemical analysis; assay type: functional, organism-based; conditions: time 30-40 min
MDA-MB-468 [32] = assay: Antiproliferative activity against human MDA-MB-468 cells assessed as reduction in cell viability incubated for 72 hrs by MTT assay; assay type: functional, cell-based; conditions: MDA-MB-468, 72 h
[33] = molecular target: T1, Poly [ADP-ribose] polymerase 1 (Homo sapiens, UniProt P09874); assay: Inhibition of PARP1 (unknown origin) using NAD+ as substrate incubated for 60 mins by ELISA
[34] = Toxicity in BALB/c nude mouse xenografted with human MDA-MB-468 cells assessed as morphological changes in lung at 80 mg/kg, ig administered daily for 16 days measured every 3 days by hematoxyin-eosin staining based analysis; assay type: organism-based; conditions: in vivo, po, 384 h, time 16 day
MDA-MB-231 [35] = assay: Antitumor activity against human MDA-MB-231 cells xenografted in BALB/c nude mouse assessed as reduction in c-Myc expression at 80 mg/kg incubated for 30 to 40 mins by immunohistochemical analysis; assay type: functional, organism-based; conditions: time 30-40 min
[36] = Toxicity in BALB/c nude mouse xenografted with human MDA-MB-468 cells assessed as change in body weight at 80 mg/kg, ig administered daily for 16 days measured every 3 days; assay type: organism-based; conditions: in vivo, po, 384 h, time 16 day
MDA-MB-231 [37] = assay: Antitumor activity against human MDA-MB-231 cells xenografted in BALB/c nude mouse assessed as downregulation of Rad51 at 80 mg/kg by Western blot analysis; assay type: functional, organism-based
MDA-MB-231 [38] = assay: Antitumor activity against human MDA-MB-231 cells xenografted in BALB/c nude mouse assessed as downregulation of PAR at 80 mg/kg by Western blot analysis; assay type: functional, organism-based
[39] = Toxicity in BALB/c nude mouse xenografted with human MDA-MB-468 cells assessed as morphological changes in heart at 80 mg/kg, ig administered daily for 16 days measured every 3 days by hematoxyin-eosin staining based analysis; assay type: organism-based; conditions: in vivo, po, 384 h, time 16 day
[40] = Toxicity in BALB/c nude mouse xenografted with human MDA-MB-468 cells assessed as morphological changes in heart at 40 to 80 mg/kg, ig administered daily for 16 days measured every 3 days by hematoxyin-eosin staining based analysis; assay type: organism-based; conditions: in vivo, po, 384 h, dose 40-80 mg/kg, time 16 day
MDA-MB-231 [41] = assay: Antitumor activity against human MDA-MB-231 cells xenografted in BALB/c nude mouse assessed as reduction in Rad51 expression at 80 mg/kg incubated for 30 to 40 mins by immunohistochemical analysis; assay type: functional, organism-based; conditions: time 30-40 min
[42] = molecular target: T1, Poly [ADP-ribose] polymerase 1; assay: Inhibition of PARP1 (unknown origin) at 1 uM relative to control

T1 sequence (P09874 whole entry): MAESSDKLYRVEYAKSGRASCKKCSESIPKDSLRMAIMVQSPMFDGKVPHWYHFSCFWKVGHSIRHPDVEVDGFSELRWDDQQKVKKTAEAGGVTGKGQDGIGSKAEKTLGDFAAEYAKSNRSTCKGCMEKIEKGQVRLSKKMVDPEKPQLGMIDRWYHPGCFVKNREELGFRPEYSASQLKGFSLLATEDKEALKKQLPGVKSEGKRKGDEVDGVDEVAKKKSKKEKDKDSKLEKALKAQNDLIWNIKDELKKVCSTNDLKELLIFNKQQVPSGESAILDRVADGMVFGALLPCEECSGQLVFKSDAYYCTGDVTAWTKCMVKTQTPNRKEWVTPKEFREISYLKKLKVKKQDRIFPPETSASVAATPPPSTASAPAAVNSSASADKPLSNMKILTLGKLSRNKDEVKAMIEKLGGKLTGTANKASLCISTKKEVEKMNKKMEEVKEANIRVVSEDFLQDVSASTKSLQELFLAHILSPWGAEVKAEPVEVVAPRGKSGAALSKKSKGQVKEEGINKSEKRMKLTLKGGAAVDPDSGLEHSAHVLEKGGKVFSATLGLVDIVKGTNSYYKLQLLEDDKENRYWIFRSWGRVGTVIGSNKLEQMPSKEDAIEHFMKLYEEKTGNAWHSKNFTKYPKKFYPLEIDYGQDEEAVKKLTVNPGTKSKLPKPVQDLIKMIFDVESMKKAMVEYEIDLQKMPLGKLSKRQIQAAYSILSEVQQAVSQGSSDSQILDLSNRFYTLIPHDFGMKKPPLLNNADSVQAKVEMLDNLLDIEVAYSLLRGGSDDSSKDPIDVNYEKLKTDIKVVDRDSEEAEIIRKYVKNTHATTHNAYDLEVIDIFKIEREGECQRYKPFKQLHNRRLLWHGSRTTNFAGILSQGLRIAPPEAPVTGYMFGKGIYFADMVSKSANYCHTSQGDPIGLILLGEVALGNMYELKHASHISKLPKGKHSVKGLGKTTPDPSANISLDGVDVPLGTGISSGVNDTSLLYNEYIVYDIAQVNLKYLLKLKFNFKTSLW

For `Cc1sc2c(c1C)C(c1ccc(Cl)cc1)=NC(CC(=O)OC(C)(C)C)c1nnc(C)n1-2` (configuration not stated), the Activity (MDA-MB-468 [1]) was “Active”, the Activity (MDA-MB-468 [2]) was “Active” and the Activity (MDA-MB-231 [3]) was “Active”. The Activity (MDA-MB-468 [4]) was 30.72%, the Activity (MDA-MB-231 [5]) was “Active” and the Activity (MDA-MB-468 [6]) was 27.9%. For the same molecule, the Activity (MDA-MB-468 [7]) was 7.3%, the Activity (MDA-MB-468 [8]) was “Active” and the Activity (MDA-MB-468 [9]) was “Active”. The Activity (MDA-MB-468 [10]) was “Active”, the Activity (MDA-MB-468 [11]) was 12.8% and the Activity (MDA-MB-468 [12]) was 58.9%. The Activity (MDA-MB-468 [13]) was “Active”.
With `COc1cc(OC)c2c(=O)[nH]c(-c3cc(C)c(OCCOc4ccccc4C(N)=O)c(C)c3)nc2c1` the Activity [14] was “Non-Toxic”, the Activity (MDA-MB-231 [15]) was “Active” and the Activity [16] was “Non-Toxic”. The inhibition [17] was 66.2%, the Activity (MDA-MB-231 [18]) was “Active” and the Activity [19] was “Non-Toxic”. The Activity [20] was “Non-Toxic”, the Activity [21] was “Non-Toxic” and the Activity [22] was “Non-Toxic”. For the same molecule, the Activity (MDA-MB-231 [23]) was “Active”, the inhibition in vivo at 80 mg/kg (MDA-MB-468 [24]) was 62.5% and the Activity [25] was “Non-Toxic”. For the same molecule, the IC50 (MDA-MB-231 [26]) was 15.6 µM, the Activity [27] was “Non-Toxic” and the Activity [28] was “Non-Toxic”. For the same molecule, the Activity (MDA-MB-231 [29]) was “Active”, the Activity [30] was “Non-Toxic” and the Activity (MDA-MB-231 [31]) was “Active”. For the same molecule, the IC50 (MDA-MB-468 [32]) was 6.42 µM, the IC50 [33] was 0.0046 µM and the Activity [34] was “Non-Toxic”. The Activity (MDA-MB-231 [35]) was “Active”, the Activity [36] was “Non-Toxic” and the Activity (MDA-MB-231 [37]) was “Active”. The Activity (MDA-MB-231 [38]) was “Active”, the Activity [39] was “Non-Toxic” and the Activity [40] was “Non-Toxic”. For the same molecule, the Activity (MDA-MB-231 [41]) was “Active” and the inhibition [42] was 35.9%.
